Assay [1] concerns HT29 cells. The settings on record: for Enhancement of HT29 cell killing by BCNU / ED90, concentration required to kill 90% of HT29 cells with BCNU: BCNU 40 μM.
For assay [2], the system named is KB nasopharyngeal tumor cells. Description: Colony-forming cytotoxicity assay with BCNU, KB cells. Type of assay: cell-based. The settings on record: 40 μM or 80 μM BCNU, 2 hr exposure in folate free medium. On the procedure:
(§1) 2-Amino-O^4-benzyl-6-carboxypteridine (5) is not effective probably because the negative charge on the molecule at physiological pH prevents its easy entry into cells. However, even though O^4-benzylfolic acid is also anionic at physiological pH, it does enhance cell killing by BCNU. Furthermore, its effectiveness as an adjuvant is a function of the cells' ability to express the α-form of the folic acid receptor. […] KB cell killing by 80 μM BCNU in combination with 7 is also illustrated. For these experiments (FIG. 2) cells were grown in RPMI medium, were incubated with 7 for 2 hr and were then treated with either 40 μM BCNU (A549, HT29 and KB cells) or 80 μM BCNU (KB cells) for 2 hr. The medium was then replaced with fresh medium containing no 7. Cells were kept for 16-18 hr before being replated. […]
(§2) Cells were grown either in Dulbecco's modified Eagle's medium supplemented with 10% fetal bovine serum plus 1.5 mM glutamine and 50 μg/mL gentamycin (HT29) or in RPMI 1640 medium in the presence of 10% fetal bovine serum (HT29, A549 and KB cells). The effect of AGT inactivators on the sensitivity of cells to BCNU was determined using a colony-forming assay.^13 Cells were plated at a density of 10^6 in 25-cm^2 flasks and 24 h later were incubated with different concentrations of AGT inactivator for 2 h before exposure to 40 μM (HT29 cells and A549 cells) or 80 μM (KB cells) of BCNU for 2 h. […]

Assay [3] deals with A549 lung tumor cells. Description: Colony-forming cytotoxicity assay with BCNU, A549 cells. The format is cell-based. The settings on record: 40 μM BCNU, 2 hr exposure in folate free medium. On the procedure:
as §1, §2

Assay [4] concerns the target T1, P140K mutant alkyltransferase (Homo sapiens, UniProt P16455, P140K).
T1 construct: His tag
T1 sequence (P16455 1-207 P140K): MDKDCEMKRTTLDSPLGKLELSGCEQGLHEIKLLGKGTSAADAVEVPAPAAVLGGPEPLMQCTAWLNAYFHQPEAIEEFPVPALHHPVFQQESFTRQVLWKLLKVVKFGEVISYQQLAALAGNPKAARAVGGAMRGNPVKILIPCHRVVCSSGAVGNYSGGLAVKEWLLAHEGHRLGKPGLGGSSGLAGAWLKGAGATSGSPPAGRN
The settings on record: cited from earlier work.

[5] abbreviates: Dulbecco's medium, inactivator present before, during and after BCNU for 16-18 hours.
[6] abbreviates: RPMI medium, inactivator present before and during BCNU only.

Like-named read-outs stand apart in the source and are kept apart here. Marks after values point to notes of the source that are not given here.

As to `Nc1nc(OCc2ccccc2)c2nccnc2n1` [Compound 1, 2-amino-O^4-benzylpteridine], in assay [1], the “Enhancement of HT29 cell killing by BCNU” value is “capable of enhancing”. In addition, in assay [1] (setting [5]), the “ED90, concentration required to kill 90% of HT29 cells with BCNU” value (shortened to “ED90 … to kill 90% of HT29 cells with BCNU”) is on record as 0.2^b μM.

Take `Cc1nc2nc(N)nc(OCc3ccccc3)c2nc1C` [Compound 2, 2-amino-O^4-benzyl-6,7-dimethylpteridine]: the “Enhancement of HT29 cell killing by BCNU” value in assay [1] is given as “capable of enhancing”. The “ED90 … to kill 90% of HT29 cells with BCNU” value in assay [1] (setting [5]) was 0.6^b μM.

For the compound `Nc1nc(OCc2ccccc2)c2nc(CO)cnc2n1` [Compound 4, 2-Amino-O^4-benzyl-6-hydroxymethylpteridine], the “Enhancement of HT29 cell killing by BCNU” value in assay [1] was “capable of enhancing”. Besides, in assay [1] (setting [5]), the “ED90 … to kill 90% of HT29 cells with BCNU” value was 0.7^b μM.

In the case of `Nc1nc(OCc2ccccc2)c2nc(C(=O)O)cnc2n1` [Compound 5, 2-Amino-O^4-benzylpteridine-6-carboxylic acid], the “Enhancement of HT29 cell killing by BCNU” value in assay [1] is given as “not effective”. The “ED90 … to kill 90% of HT29 cells with BCNU” value in assay [1] (setting [5]) is “inactive”.

As to `Nc1nc(OCc2ccccc2)c2nc(C=O)cnc2n1` [Compound 6, 2-Amino-O^4-benzyl-6-formylpteridine], the “Enhancement of HT29 cell killing by BCNU” value in assay [1] is given as “capable of enhancing”. The “ED90 … to kill 90% of HT29 cells with BCNU” value in assay [1] (setting [6]) is given as 0.7^c μM.

Turning to `Nc1nc(OCc2ccccc2)c2nc(CNc3ccc(C(=O)N[C@@H](CCC(=O)O)C(=O)O)cc3)cnc2n1` [Compound 7, O^4-Benzylfolic acid], the “Effectiveness as an adjuvant for cell killing by BCNU (FIG. 2)” value is reported as “greatest” in assay [2]; “lowest” in assay [3]; “somewhat greater” in assay [1] (HT29 cells, 40 μM BCNU, 2 hr exposure in folate free medium). Moreover, in assay [1], the “Enhancement of HT29 cell killing by BCNU” value is given as “capable of enhancing”. Besides, the “ED90 … to kill 90% of HT29 cells with BCNU” value in assay [1] (RPMI folate-free medium) was 15 µM; in assay [1] (setting [6]), 24^c,d μM.

Turning to `Nc1nc(OCc2ccccc2)c2nc[nH]c2n1` [O^6-benzylguanine, reference compound], the “Inactivation of the P140K mutant alkyltransferase” value in assay [4] is “essentially resistant”. Further, the “ED90 … to kill 90% of HT29 cells with BCNU” value in assay [1] (setting [5]) is 0.4^b μM; in assay [1] (setting [6]), 0.7^c μM.

These data come from patent US20070155752A1, “2-Amino-o4-substituted pteridines and their use as inactivators of o6-alkylguanine-dna alkyltransferase” (Government of the United States of America,, priority 2004, published 2007).
